Molecular target: T1, TAS2R138 (Mus musculus, UniProt Q7TQA6)
T1 construct: endogenous in cells; host or cells: RAW264.7 murine macrophages (ATCC)
T1 sequence (Q7TQA6 1-331): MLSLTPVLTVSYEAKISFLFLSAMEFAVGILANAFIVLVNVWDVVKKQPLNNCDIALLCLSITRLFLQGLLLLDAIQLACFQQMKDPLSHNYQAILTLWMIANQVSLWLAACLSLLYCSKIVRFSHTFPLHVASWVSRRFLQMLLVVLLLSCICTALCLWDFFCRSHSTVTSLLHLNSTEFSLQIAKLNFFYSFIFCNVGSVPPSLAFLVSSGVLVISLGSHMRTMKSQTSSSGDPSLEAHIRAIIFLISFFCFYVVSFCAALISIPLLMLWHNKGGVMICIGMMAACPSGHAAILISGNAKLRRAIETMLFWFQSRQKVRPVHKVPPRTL
Assay: TAS2R38/TAS2R138 inhibition experiment: TNFα secretion of RAW264.7 cells pre-treated with probenecid
Type: cell-based
Conditions: 1 mM probenecid, one hour before LPS and IFNγ, six hours
Description: In RAW264.7 cells, inflammation was triggered with LPS (10 ng/mL, Sigma) and IFNγ (10 U/mL, R&Dsystems) for 2 h or 6 h, depending on the experiments. PBMC were exposed to LPS (10 ng/mL) and AHL for 24 h. For TAS2R38 inhibition experiments, cells were exposed to TAS2R38 allosteric inhibitor probenecid (1 mM, Sigma) for one hour before adding AHLs and the inflammatory cocktail, without changing the media.
At the end of cell treatment, the medium was centrifuged at 300g for 5 min at 4 °C. Supernatant was frozen at − 80 °C until ELISA assays. TNFα and IL-1β ELISA kits were purchased from R&D systems and performed according to the manufacturer’s instructions. Briefly, plates were coated with a capture antibody and incubated overnight. Wells were blocked using 1% bovine serum albumin-PBS solution (Sigma), then exposed to cell supernatants at room temperature for two hours. Wells were washed and incubated with the detection antibody for an additional two hours. After thorough washing, Streptavidin-HRP solution was added for 20 min. Wells were washed, then incubated with TMB (Biolegend) solution for 20 min and the reaction was stopped using 1 M H2SO4. Absorbance was measured by a spectrometer (FLUOstar Omega; BMG Labtech) at 450 nm and the absorbance at 540 nm was subtracted.

In the case of `CCCN(CCC)S(=O)(=O)c1ccc(C(=O)O)cc1` [probenecid, reference compound], the “effect on TNFα secretion in activated cells cultured in absence of 3-oxo-C12:2-HSL” value is reported as “no effect”.
